Data from US8911723B2, “Hybrid hydrogel scaffold compositions and methods of use” (Escape Therapeutics, Inc., priority 2010, dated 2014).
“Also recorded” adds a separate entry of the source.

Experiments:
hAMSCs [1] = experiment: Cell surface marker expression of encapsulated hAMSCs (RT-PCR); assay type: cell-based, human; conditions: after 2 weeks of culture, data not shown
Description: hAMSCs were confirmed to meet the minimal criteria for defining multipotent MSCs according to previously described methods [Dominici et al., “Minimal criteria for defining multipotent mesenchymal stromal cells. The International Society for Cellular Therapy position statement,” Cytotherapy 2006; 8:315-7.]. First, hAMSCs were plastic-adherent when maintained in standard culture conditions using tissue culture flasks. […] Third, hAMSCs were able to differentiate to osteoblasts, adipocytes and chondroblasts under standard in vitro differentiating conditions.

hAMSCs [2] = experiment: WST-1 Cell Proliferation assay of encapsulated hAMSCs; assay type: cell-based, human; conditions: days 1-4 of culture
hAMSCs [3] = experiment: In vitro adipogenic differentiation of encapsulated hAMSCs (Oil Red O); assay type: cell-based, human
Description: (§1) hAMSCs were encapsulated in PO, EFK8, and EFK8-PO as above. Adipogenic or osteogenic differentiation was induced by culturing cells in adipogenic or osteogenic differentiation medium (AD-medium or OS-medium, respectively, Cell Applications, San Diego, Calif.) for 7 days or 14 days, respectively, according to our previously published method, which is hereby incorporated by reference, Zhao L et al., “TGF-beta 1 Induces Osteogenic Differentiation of Murine Bone Marrow Stromal Cells,” Tissue Eng Part A 2009, In press. Fresh induction media was added to every other day.
Red oil staining was used to confirm hAMSC adipogenic differentiation. Cells were washed with PBS and fixed with 10% formalin for 20 min. Cells were then washed twice with PBS, once with 60% isopropyl alcohol, stained with Oil Red O solution (Sigma-Aldrich) for 15 min, washed with PBS once more, and then observed by light field microscopy, Hata K et al., “A CCAAT/enhancer binding protein beta isoform, liver-enriched inhibitory protein, regulates commitment of osteoblasts and adipocytes,” Mol Cell Biol, 2005, 25(5):1971-1979, which is hereby incorporated by reference.

[4] = Cell viability of hydrogel-encapsulated hAMSCs (trypan blue); assay type: cell-based; conditions: human, hAMSCs encapsulated in EFK8 hydrogel, through 14 days of culture, read-out: hAMSC viability
Description: hAMSCs were encapsulated in PO, EFK8, or EFK8-PO and cultured in a 37° C. humidified 5% CO2 incubator for 3 hrs, 1, 3, 6, 10, or 14 days. Fifty μL of cells was then mixed with an equal volume of 1% trypan blue and observed under light microscopy. Trypsin-EDTA (0.25%) was used to separate cells when cell aggregation occurred. Viability was calculated as the percentage of living cells over total cells.

[5] = Rheology, temperature sweep of hydrogels (AR-G2 rheometer); assay type: physicochemical; conditions: for lost modulus G″ / storage modulus G′: 1% w/v in PBS
Description: The viscoelastic properties of 3 hydrogels were investigated with a, AR-G2 rheometer (TA Instruments, New Castle, Del.). The parameters of temperature sweep were set as follows: range 4-40° C., change rate 5° C./min, strain 2%; frequency 1 Hz. Three parameters were recorded: 1) storage modulus G′ estimates the elastic component of mechanical strength, 2) lost modulus G″ estimates the viscous component of mechanical strength, and 3) phase difference Delta indicates the elastic or viscous property of a material. Zero degree of Delta implies a purely elastic material, while a purely viscous material has a Delta of 90 degrees. This same method can be used to analyze the viscoelastic properties of any of the scaffolds/hydrogels of the invention.
To determine the mechanical properties of PO, EFK8, and EFK8-PO hydrogels, we performed rheological analyses. The viscoelastic behaviors of EFK8 (1% w/v in PBS), PO (20% w/v in PBS), and EFK8-PO (20% w/v PO plus 1% w/v EFK8, both in PBS) hydrogels are illustrated in FIG. 1. At 25° C., G′ of EFK8 hydrogel was ˜10.5 Pa and G″ was ˜6.2 Pa. […] Phase difference Delta increased from 30 degrees to 70 degrees (FIG. 1A). […] EFK8 hydrogel was very weak and less viscous both at room temperature and 37° C. […] FIG. 1C illustrates the viscoelastic behavior of EFK8-PO.

hAMSCs [6] = experiment: hAMSC morphology and distribution (aggregation) after encapsulation in hydrogels; assay type: cell-based, human; conditions: hAMSCs encapsulated in hydrogel
Description: Cells were encapsulated in the appropriate hydrogel by gently mixing hAMSCs with PO, EFK8, or EFK8-PO at a final concentration of 1×10^6 cells/ml. When seeding hAMSCs in PO or EFK8-PO, hydrogels were kept on ice to prevent premature gelation. Fifty μL of the aliquot of hydrogel/cell mixture was quickly transferred into a 96-well microplate. Encapsulated hAMSCs were then incubated at 37° C. for 5 min to induce gel formation. One hundred μL of DMEM medium was then added into each well. Fresh medium was changed 3 times within the first 30 min in order to neutralize the acidic pH of the hydrogels, and then changed every other day during culture. After various treatments described below and at the appropriate time points, a 1000 μL pipette tip was cut at its distal end to facilitate our ability to gently draw up 50 μL of encapsulated hAMSCs from the top of the well. Cells were then gently placed onto a slide to allow for examination under light field microscopy. This process was repeated 3 times per well, allowing for assessment of a total of 3 different depth layers (top, middle, and bottom) of the encapsulated cell mixture. This method of encapsulation can generally be used for encapsulating most cell-types in the scaffolds described herein. […]

hAMSCs in nude mice = experiment: In vivo adipogenic differentiation of hydrogel-encapsulated hAMSCs injected subcutaneously; conditions: subcutaneous dorsal neck, 30 days post-injection
Description: All mouse experiments were conducted in accordance with the Guide for the Care and Use of Laboratory Animals and were approved by each Institution's respective Administrative Panel on Laboratory Animal Care. hAMSCs were encapsulated in PO, EFK8, and EFK8-PO hydrogels at a final concentration of 1×10^6 cells/ml and mixed gently in the hydrogels. PO and EFK8-PO were kept on ice to prevent premature gelation during the seeding process. Two hundred μL of each encapsulation was injected subcutaneously using 1 ml syringes into the dorsal neck area of female nude mice (8 weeks of age). Two hundred μL of PBS was used as a control. The nude mice were then allowed to recover, and then returned to their cages. After 30 days, mice were sacrificed using CO2 euthanasia and dorsal neck skin harvested immediately. […]
Specimens were frozen sectioned using either vertical or horizontal slices 5-10 μm thick, then post-fixed in 100% cold acetone at −20° C., blocked for 1 hr with goat serum and then incubated with the appropriate mouse anti-human nuclei monoclonal primary antibody (Chemicon, Billerica, Mass.) at the desired dilution (1:50 to 1:250) overnight at 4° C. Signal was detected using the Vectastain ABC Elite Mouse/Rabbit/Goat IgG detection kit (Vector Laboratories, Burlingame, Calif.) following the manufacturer's protocol. […]

hAMSCs [7] = experiment: In vitro osteogenic differentiation of encapsulated hAMSCs (ALP, alizarin red S); assay type: cell-based, human; conditions: osteogenic differentiation medium, 14 days
Description: as §1
Alkaline Phosphatase (ALP) staining was used to detect mineralization in hAMSCs during osteogenic differentiation. After culturing encapsulated hAMSCs for 14 days in the various hydrogels, the medium was aspirated and cells were stained with StemTag ALP (Cell Biolabs, San Diego, Calif.) according to the manufacturer's protocol. Briefly, after washing twice with PBS, cells were exposed to fixing solution for 2 min, then washed again with PBS and incubated with StemTAG ALP staining solution for 30 min in the dark. ALP staining solution was aspirated and cells were then washed with PBS and observed under light microscopy. […]

bleeding hand = experiment: Hemostatic agent test on a bleeding hand; conditions: in vivo
Description: In one embodiment, the scaffolds can be used as a hemostatic agent. […] When a bleeding hand was treated with EFK8-PO, bleeding stopped at one minute. When a bleeding hand was treated with PO alone, the hand was still bleeding at 10 minutes.

## Ac-KFEFKFEF-NH2 [EFK8, AcN-KFEFKFEF-CONH2]
hAMSCs [1]
  cell surface marker expression pattern: expressed CD73, CD90, and CD105 but were negative for CD14, CD19, CD34, CD45, and HLA class II
hAMSCs [2]
  hAMSC proliferation (WST-1): significantly increased hAMSC proliferation rates; also recorded: promote cell proliferation
hAMSCs [3]; adipogenic differentiation medium, 4 days
  Adipogenic Oil-Red-O (% +) Day 4: 42±6%
hAMSCs [3]; adipogenic differentiation medium, 7 days
  Adipogenic Oil-Red-O (% +) Day 7: 68±8%
hAMSCs [3]; adipogenic or osteogenic induction medium
  differentiation of encapsulated hAMSCs on induction medium (in words): differentiated into adipocytes or osteoblasts
[4]
  viability: > 80%
[5]; 25° C.
  lost modulus G″: ~6.2 Pa
  storage modulus G′: ~10.5 Pa
[5]; 37° C.
  lost modulus G″: 5 Pa
  storage modulus G′: 2 Pa
[5]; end of the increase (37° C.)
  phase difference Delta: 70 degrees
[5]; start of the increase (25° C.)
  phase difference Delta: 30 degrees
hAMSCs [6]; 3 days of culture
  Aggregation Day 3: <3-5%
hAMSCs [6]; 10 days of culture
  Aggregation Day 10: ~10%
hAMSCs in nude mice
  new fat (adipose) tissue / hAMSC engraftment and adipogenic differentiation: did not observe new adipose tissue
hAMSCs [7]
  Osteogenic AP (% +) Day 14: 88±9%
  Osteogenic Alizarin Red (% +) Day 14: 54±7%
Bleeding hand
  effectiveness as a hemostatic agent (in words): also effective as a hemostatic agent
